This is an account of results in US10189841B2, “Purinones as ubiquitin-specific protease 1 inhibitors” (Forma Therapeutics, Inc., priority 2015, dated 2019).

pIC50: −log10 of the molar value.

In this assay the target is USP1 (construct USP1 (I-785, GG670, 671AA)/UAF1 (I-677)-Flag) (Homo sapiens (Human), UniProt O94782, G670A/G671A). Kind of assay: Ubiquitin-Rhodamine 110 assay for USP1 activity. It counts as biochemical. The following applies: USP1/UAF1 25 pM, Ub-Rh110 25 nM, 30 min preincubation. In a few lines: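 Two formats with the USP1/UAF1 complex and 25 nM ubiquitin-rhodamine 110 in pH 8.0 Tris buffer with calcium, glutathione and detergent. Single-point screening used 10 µM, 100 pM enzyme and 45 min. Inhibition was set against no-enzyme and DMSO wells.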
Sequence of USP1 (construct USP1 (I-785, GG670, 671AA)/UAF1 (I-677)-Flag) (O94782 whole entry G670A/G671A): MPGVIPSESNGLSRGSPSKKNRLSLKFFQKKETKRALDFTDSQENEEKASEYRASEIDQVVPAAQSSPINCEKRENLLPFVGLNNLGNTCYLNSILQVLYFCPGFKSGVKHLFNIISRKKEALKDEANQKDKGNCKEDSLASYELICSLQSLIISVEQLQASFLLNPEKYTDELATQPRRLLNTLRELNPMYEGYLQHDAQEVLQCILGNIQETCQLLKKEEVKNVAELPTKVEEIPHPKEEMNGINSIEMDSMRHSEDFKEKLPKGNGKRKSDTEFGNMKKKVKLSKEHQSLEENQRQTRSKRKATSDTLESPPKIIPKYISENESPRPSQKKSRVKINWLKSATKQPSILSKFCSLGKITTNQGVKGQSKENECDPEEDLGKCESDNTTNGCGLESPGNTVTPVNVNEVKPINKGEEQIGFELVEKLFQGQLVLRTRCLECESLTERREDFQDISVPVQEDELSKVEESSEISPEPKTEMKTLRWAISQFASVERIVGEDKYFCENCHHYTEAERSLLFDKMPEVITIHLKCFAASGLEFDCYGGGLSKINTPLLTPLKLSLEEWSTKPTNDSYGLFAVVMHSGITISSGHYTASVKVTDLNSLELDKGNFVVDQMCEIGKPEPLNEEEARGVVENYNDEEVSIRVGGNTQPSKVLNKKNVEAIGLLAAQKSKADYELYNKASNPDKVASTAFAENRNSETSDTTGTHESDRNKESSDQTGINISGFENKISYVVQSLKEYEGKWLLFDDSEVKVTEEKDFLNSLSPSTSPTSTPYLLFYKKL
Sequence of USP1 (construct USP1 (I-785, GG670, 671AA)/UAF1 (I-677)-Flag) (Q8TAF3 whole entry partner): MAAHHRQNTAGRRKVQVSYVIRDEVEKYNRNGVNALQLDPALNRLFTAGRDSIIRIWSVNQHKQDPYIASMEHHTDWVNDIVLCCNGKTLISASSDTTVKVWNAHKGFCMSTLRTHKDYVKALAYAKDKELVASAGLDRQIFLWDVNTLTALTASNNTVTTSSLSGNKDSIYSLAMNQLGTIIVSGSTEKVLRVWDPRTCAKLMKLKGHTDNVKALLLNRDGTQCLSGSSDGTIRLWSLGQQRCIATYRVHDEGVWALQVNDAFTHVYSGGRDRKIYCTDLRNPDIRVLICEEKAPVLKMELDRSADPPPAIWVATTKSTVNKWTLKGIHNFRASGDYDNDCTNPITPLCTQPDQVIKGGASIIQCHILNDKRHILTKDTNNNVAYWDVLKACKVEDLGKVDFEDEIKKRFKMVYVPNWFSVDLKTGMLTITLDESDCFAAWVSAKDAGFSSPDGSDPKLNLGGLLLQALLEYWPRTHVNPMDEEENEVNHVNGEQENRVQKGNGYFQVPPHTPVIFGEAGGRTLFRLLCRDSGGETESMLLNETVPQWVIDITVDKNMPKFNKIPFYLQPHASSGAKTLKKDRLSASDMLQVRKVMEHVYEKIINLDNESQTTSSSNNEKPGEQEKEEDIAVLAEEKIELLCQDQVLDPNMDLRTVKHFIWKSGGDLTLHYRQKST
By pIC50 is commonly meant the negative decadic logarithm of the IC50, by convention in mol/L. Higher therefore signals a low IC50. Consider `CC(C)c1ccccc1-c1ncc2c(n1)n(Cc1ccc(-c3ncsc3CO)cc1)c(=O)n2C` [Compound I-305, 9-(4-(5-(hydroxymethyl)thiazol-4-yl)benzyl)-2-(2-isopropylphenyl)-7-methyl-7,9-dihydro-8H-purin-8-one], for which the pIC50 is above 7.30.

For `Cc1cc(C)n(-c2ccc([C@H](C)n3c(=O)[nH]c4cnc(-c5ccccc5C(C)C)nc43)cc2)n1` [Compound I-191, (S)-9-(1-(4-(3,5-dimethyl-1H-pyrazol-1-yl)phenyl)ethyl)-2-(2-isopropylphenyl)-7,9-dihydro-8H-purin-8-one], the pIC50 is above 7.30.

`CC(C)c1ccccc1-c1ncc2[nH]c(=O)n(Cc3cnc(-n4cccn4)cn3)c2n1` [Compound I-508, 9-((5-(1H-Pyrazol-1-yl)pyrazin-2-yl)methyl)-2-(2-isopropylphenyl)-7,9-dihydro-8H-purin-8-one] showed a pIC50 below 5.70.

Turning to `CC(C)c1ccccc1-c1ncc2[nH]c(=O)n(Cc3ccc(-n4ccc(C(F)(F)F)n4)cc3)c2n1` [Compound I-149, 2-(2-isopropylphenyl)-9-(4-(3-(trifluoromethyl)-1H-pyrazol-1-yl)benzyl)-7,9-dihydro-8H-purin-8-one], the pIC50 was 6.70 to 7.30.

The molecule `CC(C)c1cccc(F)c1-c1ncc2c(n1)n(Cc1ccc(-n3cccn3)cc1)c(=O)n2C` [Compound I-11, 9-(4-(1H-pyrazol-1-yl)benzyl)-2-(2-fluoro-6-isopropylphenyl)-7-methyl-7,9-dihydro-8H-purin-8-one] showed a pIC50 above 7.30.

Consider `CC(=O)Nc1cn(C)c(-c2ccc(Cn3c(=O)[nH]c4cnc(-c5ccccc5C(C)C)nc43)cc2)n1` [Compound I-538, N-(2-(4-((2-(2-isopropylphenyl)-8-oxo-7,8-dihydro-9H-purin-9-yl)methyl)phenyl)-1-methyl-1H-imidazol-4-yl)acetamide], for which the pIC50 is 6.70 to 7.30.

In the case of `CC(C)c1ccccc1-c1ncc2[nH]c(=O)n(Cc3ccc(C(=O)N4CCCCC4C)cc3)c2n1` (centres unmarked) [Compound I-398, 2-(2-isopropylphenyl)-9-(4-(2-methylpiperidine-1-carbonyl)benzyl)-7,9-dihydro-8H-purin-8-one], the pIC50 is above 7.30.

Take `CCN(CC)C(=O)c1ccc(Cn2c(=O)[nH]c3cnc(-c4ccccc4C(C)C)nc32)cc1` [Compound I-362, N,N-diethyl-4-((2-(2-isopropylphenyl)-8-oxo-7,8-dihydro-9H-purin-9-yl)methyl)benzamide]: the pIC50 is above 7.30.

Molecule `COCCNC(=O)N(C)c1ccc(Cn2c(=O)n(C)c3cnc(-c4ccccc4C(C)C)nc32)cc1` [Compound I-485, 1-(4-((2-(2-isopropylphenyl)-7-methyl-8-oxo-7,8-dihydro-9H-purin-9-yl)methyl)phenyl)-3-(2-methoxyethyl)-1-methylurea] gave a pIC50 below 5.70.

As for `CC(=O)Nc1cccc(Cn2c(=O)[nH]c3cnc(-c4ccccc4C(C)C)nc32)c1` [Compound I-217, N-(3-((2-(2-isopropylphenyl)-8-oxo-7,8-dihydro-9H-purin-9-yl)methyl)phenyl)acetamide], the negative logarithm of the IC50 (pIC50) is 5.70 to 6.70.

Take `CC(C)c1ccccc1-c1ncc2[nH]c(=O)n(Cc3ccc(-n4cccn4)cc3F)c2n1` [Compound I-167, 9-(2-fluoro-4-(1H-pyrazol-1-yl)benzyl)-2-(2-isopropylphenyl)-7,9-dihydro-8H-purin-8-one]: the pIC50 is 5.70 to 6.70.

`CC(C)c1ccccc1-c1ncc2c(n1)n(Cc1ccc(OCc3cncn3C)cc1)c(=O)n2C` [Compound I-232, 2-(2-isopropylphenyl)-7-methyl-9-(4-((1-methyl-1H-imidazol-5-yl)methoxy)benzyl)-7,9-dihydro-8H-purin-8-one] showed a pIC50 of 5.70 to 6.70.

Take `CC(Oc1ncccc1-c1ncc2[nH]c(=O)n(Cc3ccc(-c4nc(C(F)(F)F)cn4C)cc3)c2n1)C(F)(F)F` (centres unmarked) [Compound I-418, 9-(4-(1-methyl-4-(trifluoromethyl)-1H-imidazol-2-yl)benzyl)-2-(2-((1,1,1-trifluoropropan-2-yl)oxy)pyridin-3-yl)-7,9-dihydro-8H-purin-8-one]: the pIC50 was above 7.30.

On to `CC(C)c1ncccc1-c1ncc2c(n1)n([C@@H](C)c1ccc(-c3nc(C(F)(F)F)cn3C)cc1)c(=O)n2C` [Compound I-116, (S)-2-(2-isopropylpyridin-3-yl)-7-methyl-9-(1-(4-(1-methyl-4-(trifluoromethyl)-1H-imidazol-2-yl)phenyl)ethyl)-7,9-dihydro-8H-purin-8-one], for which the pIC50 was above 7.30.

Take `CC(C)c1ncccc1-c1ncc2c(n1)n(Cc1ccc(-c3nc(C(F)(F)F)cn3C)c(F)c1)c(=O)n2C` [Compound I-126, 9-(3-fluoro-4-(1-methyl-4-(trifluoromethyl)-1H-imidazol-2-yl)benzyl)-2-(2-isopropylpyridin-3-yl)-7-methyl-7,9-dihydro-8H-purin-8-one]: the pIC50 is above 7.30.

Turning to `CC(C)c1ccccc1-c1ncc2c(n1)n(Cc1ccc(-n3cccn3)cc1)c(=O)n2C` [Compound I-6, 9-(4-(1H-pyrazol-1-yl)benzyl)-2-(2-isopropylphenyl)-7-methyl-7,9-dihydro-8H-purin-8-one], the negative-log IC50 (pIC50) was 6.70 to 7.30.

Molecule `CC(C)c1ccccc1-c1ncc2[nH]c(=O)n(Cc3ccc(-c4cn[nH]c4)cc3)c2n1` [Compound I-539, 9-(4-(1H-Pyrazol-4-yl)benzyl)-2-(2-isopropylphenyl)-7,9-dihydro-8H-purin-8-one] had a pIC50 of 5.70 to 6.70.

For `Cn1cc(C(F)(F)F)nc1-c1ccc(Cn2c(=O)[nH]c3cnc(-c4cccc5ccn(C)c45)nc32)cc1` [Compound I-45, 2-(1-methyl-1H-indol-7-yl)-9-(4-(1-methyl-4-(trifluoromethyl)-1H-imidazol-2-yl)benzyl)-7,9-dihydro-8H-purin-8-one], the pIC50 is above 7.30.

As for `Cc1scnc1-c1ccc(Cn2c(=O)[nH]c3cnc(-c4ccccc4C(C)C)nc32)cc1` [Compound I-300, 2-(2-isopropylphenyl)-9-(4-(5-methylthiazol-4-yl)benzyl)-7,9-dihydro-8H-purin-8-one], the pIC50 was above 7.30.

Molecule `COC[C@H]1CCCN1C(=O)c1ccc(Cn2c(=O)[nH]c3cnc(-c4ccccc4C(C)C)nc32)cc1` [Compound I-403, (R)-2-(2-isopropylphenyl)-9-(4-(2-(methoxymethyl)pyrrolidine-1-carbonyl)benzyl)-7,9-dihydro-8H-purin-8-one] gave a pIC50 of 5.70 to 6.70.

Consider `CC(C)c1ccccc1-c1ncc2[nH]c(=O)n(Cc3ccc(-c4cnccn4)cc3)c2n1` [Compound I-247, 2-(2-isopropylphenyl)-9-(4-(pyrazin-2-yl)benzyl)-7,9-dihydro-8H-purin-8-one], for which the pIC50 was 6.70 to 7.30.

The molecule `CN(CC(F)(F)F)c1ncccc1-c1ncc2[nH]c(=O)n(Cc3ccc(-c4nc(C(F)(F)F)cn4C)cc3)c2n1` [Compound I-332, 2-(2-(methyl(2,2,2-trifluoroethyl)amino)pyridin-3-yl)-9-(4-(1-methyl-4-(trifluoromethyl)-1H-imidazol-2-yl)benzyl)-7,9-dihydro-8H-purin-8-one] had a pIC50 above 7.30.

For `CC(C)c1ccccc1-c1ncc2[nH]c(=O)n(Cc3ccc(-c4ncn(C)c4CO)cc3)c2n1` [Compound I-297, 9-(4-(5-(hydroxymethyl)-1-methyl-1H-imidazol-4-yl)benzyl)-2-(2-isopropylphenyl)-7,9-dihydro-8H-purin-8-one], the pIC50 is 5.70 to 6.70.

Regarding `CC(=O)N1CCC(c2ccn(-c3ccc(Cn4c(=O)[nH]c5cnc(-c6cccc(F)c6C(C)C)nc54)cc3)n2)CC1` [Compound I-464, 9-(4-(3-(1-acetylpiperidin-4-yl)-1H-pyrazol-1-yl)benzyl)-2-(3-fluoro-2-isopropylphenyl)-7,9-dihydro-8H-purin-8-one], the pIC50 was 6.70 to 7.30.

In turn, `Cc1cccn1-c1ccc(Cn2c(=O)[nH]c3cnc(-c4cccnc4C(C)C)nc32)cc1` [Compound I-54, 2-(2-isopropylpyridin-3-yl)-9-(4-(2-methyl-1H-pyrrol-1-yl)benzyl)-7,9-dihydro-8H-purin-8-one] showed a pIC50 of 5.70 to 6.70.

`CC(C)c1ccccc1-c1ncc2[nH]c(=O)n(Cc3ccc(-c4ncco4)cc3)c2n1` [Compound I-169, 2-(2-isopropylphenyl)-9-(4-(oxazol-2-yl)benzyl)-7,9-dihydro-8H-purin-8-one] showed a pIC50 above 7.30.

Regarding `CC(C)c1c(F)cccc1-c1ncc2[nH]c(=O)n(Cc3ccc(-n4nccn4)cc3)c2n1` [Compound I-166, 9-(4-(2H-1,2,3-triazol-2-yl)benzyl)-2-(3-fluoro-2-isopropylphenyl)-7,9-dihydro-8H-purin-8-one], the pIC50 is 6.70 to 7.30.

With `CC(C)c1ccccc1-c1ncc2[nH]c(=O)n(Cc3ccc(C(=O)N4CCC[C@H]4C)cc3)c2n1` [Compound I-369, (R)-2-(2-isopropylphenyl)-9-(4-(2-methylpyrrolidine-1-carbonyl)benzyl)-7,9-dihydro-8H-purin-8-one], the pIC50 is above 7.30.

Molecule `CC(C)c1ccccc1-c1ncc2[nH]c(=O)n(Cc3ccc(-c4cn(C)cn4)cc3)c2n1` [Compound I-273, 2-(2-isopropylphenyl)-9-(4-(1-methyl-1H-imidazol-4-yl)benzyl)-7,9-dihydro-8H-purin-8-one] showed a pIC50 above 7.30.

For the molecule `CC(C)c1ccccc1-c1ncc2[nH]c(=O)n(Cc3ccc(-c4cncn4C)cc3)c2n1` [Compound I-251, 2-(2-isopropylphenyl)-9-(4-(1-methyl-1H-imidazol-5-yl)benzyl)-7,9-dihydro-8H-purin-8-one], the pIC50 is 5.70 to 6.70.

The molecule `Cc1nc(F)ccc1-c1ncc2c(n1)n(Cc1ccc(-c3nc(C(F)(F)F)cn3C)cc1)c(=O)n2C` [Compound I-66, 2-(6-fluoro-2-methylpyridin-3-yl)-7-methyl-9-(4-(1-methyl-4-(trifluoromethyl)-1H-imidazol-2-yl)benzyl)-7,9-dihydro-8H-purin-8-one] showed a pIC50 of 5.70 to 6.70.

Consider `Cc1cnc(-c2ccc(Cn3c(=O)[nH]c4cnc(-c5ccccc5C(C)C)nc43)cc2)n1C(C)C` [Compound I-536, 9-(4-(1-Isopropyl-5-methyl-1H-imidazol-2-yl)benzyl)-2-(2-isopropylphenyl)-7,9-dihydro-8H-purin-8-one], for which the pIC50 is above 7.30.
